In patent publication US9180116B2, “Difluorolactam compounds as EP4 receptor-selective agonists for use in the treatment of EP4-mediated diseases and conditions” (Cayman Chemical Company, Inc., priority 2012, dated 2015):
Read-outs that look alike come from different tables or passages of the source.

Tests used:
[1] = biological target: Human Prostanoid EP4 Receptor (Homo sapiens (Human), UniProt P35408); assay: Radioligand binding assay, agonist site of human prostanoid EP4 receptor in transfected HEK-293 cells; conditions: for IC50: read-out: hEP4 receptor binding IC50; for Ki: read-out: hEP4 receptor binding Ki
Human Prostanoid EP4 Receptor, sequence (P35408 whole entry): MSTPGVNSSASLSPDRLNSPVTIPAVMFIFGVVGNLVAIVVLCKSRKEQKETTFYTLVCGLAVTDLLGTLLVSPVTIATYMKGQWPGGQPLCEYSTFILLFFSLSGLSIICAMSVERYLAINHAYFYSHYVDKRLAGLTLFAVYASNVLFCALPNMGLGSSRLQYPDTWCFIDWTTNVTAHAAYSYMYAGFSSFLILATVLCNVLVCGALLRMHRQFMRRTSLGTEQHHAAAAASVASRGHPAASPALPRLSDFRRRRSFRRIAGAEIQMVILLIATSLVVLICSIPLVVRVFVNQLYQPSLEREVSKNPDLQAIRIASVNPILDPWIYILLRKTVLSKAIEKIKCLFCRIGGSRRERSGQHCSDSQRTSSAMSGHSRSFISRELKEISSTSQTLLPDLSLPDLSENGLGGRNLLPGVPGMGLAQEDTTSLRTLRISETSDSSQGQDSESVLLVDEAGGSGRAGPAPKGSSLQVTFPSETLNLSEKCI
Method: Radioligand Binding Assay for the Evaluation of the Affinity of Compounds for the Agonist Site of the Human Prostanoid EP4 Receptor in Transfected HEK-293 Cells
Following incubation, the samples are filtered rapidly under vacuum through glass fiber filters (GF/B, Packard) presoaked with 0.3% PEI and rinsed several times with ice-cold 50 mM Tris-HCl using a 96-sample cell harvester (Unifilter, Packard). The filters are dried then counted for radioactivity in a scintillation counter (Topcount, Packard) using a scintillation cocktail (Microscint 0, Packard).

rat EP4 receptor [2] = biological target: T1, rat EP4 receptor (Rattus norvegicus (Rat), UniProt P43114); assay: cAMP level assay for EP4 agonist (STEP plate format); format: cell-based; conditions: read-out: STEP cell functional assay EC50 cAMP/EP4
T1 sequence (P43114 whole entry): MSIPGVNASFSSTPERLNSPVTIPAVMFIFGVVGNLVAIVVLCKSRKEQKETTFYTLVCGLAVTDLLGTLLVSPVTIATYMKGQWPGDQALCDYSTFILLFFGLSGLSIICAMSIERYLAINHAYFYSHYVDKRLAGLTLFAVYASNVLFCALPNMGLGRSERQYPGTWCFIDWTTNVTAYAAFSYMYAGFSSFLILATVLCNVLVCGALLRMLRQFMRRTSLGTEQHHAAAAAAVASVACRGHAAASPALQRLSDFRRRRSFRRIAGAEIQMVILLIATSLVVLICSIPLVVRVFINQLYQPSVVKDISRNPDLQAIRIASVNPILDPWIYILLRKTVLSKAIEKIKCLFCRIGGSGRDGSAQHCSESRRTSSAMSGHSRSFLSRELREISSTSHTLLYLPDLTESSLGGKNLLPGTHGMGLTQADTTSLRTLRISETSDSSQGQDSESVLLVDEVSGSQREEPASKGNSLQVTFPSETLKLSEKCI
Text: (§1) Functional Cellular Assays (STEP Plate Format)
(§2) Procedure of cAMP Assay for EP2/EP4 Agonist
(§3) 3. […] In addition each concentration had triplicates.
(§4) 6. Aspirate the supernatant.

rat EP4 receptor [3] = biological target: T1, rat EP4 receptor; assay: SEAP activity assay for EP4 agonist (STEP plate format); format: cell-based; conditions: read-out: STEP cell functional assay EC50 SEAP/EP4
Text: as §1
(§5) Procedure of SEAP Activity Assay for EP2/EP4 Agonist
as §3
(§6) 4. […] Cover the plate with the lid.

rat EP2 receptor [4] = biological target: T2, rat EP2 receptor (Rattus norvegicus (Rat), UniProt Q62928); assay: SEAP activity assay for EP2 agonist (STEP plate format); format: cell-based; conditions: read-out: STEP cell functional assay EC50 SEAP/EP2
T2 sequence (Q62928 whole entry): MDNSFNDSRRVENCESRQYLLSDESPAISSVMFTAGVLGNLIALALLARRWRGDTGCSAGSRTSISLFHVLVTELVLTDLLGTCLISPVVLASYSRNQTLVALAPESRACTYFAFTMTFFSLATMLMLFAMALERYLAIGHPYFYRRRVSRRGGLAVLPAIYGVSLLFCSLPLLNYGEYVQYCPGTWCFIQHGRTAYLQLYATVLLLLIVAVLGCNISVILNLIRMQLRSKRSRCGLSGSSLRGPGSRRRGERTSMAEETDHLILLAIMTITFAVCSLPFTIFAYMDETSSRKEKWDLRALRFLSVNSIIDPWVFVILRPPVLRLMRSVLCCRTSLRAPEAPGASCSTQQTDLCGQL
Text: as §1, §5, §3, §6

calvarial bone defect = assay: Rat calvarial defect model (bone formation); format: in vivo, female Sprague Dawley rats; conditions: rat cranial defect 2.6 mm, drug in calcium phosphate cement/demineralized bone matrix, eight weeks
rat EP2 receptor [5] = biological target: T2, rat EP2 receptor; assay: cAMP level assay for EP2 agonist (STEP plate format); format: cell-based; conditions: cAMP readout, read-out: STEP cell functional assay EC50 cAMP/EP2
Text: as §1, §2, §3, §4

[6] = [3H]PGE2 0.5 nM, HEK-293 cell membrane homogenates
[7] = cAMP by ELISA, 30 minutes, 500 μM IBMX
[8] = SEAP luminescence, 6-8 hours of stimulation

Structure (SMILES) | IC50 [1, 6] [nM] | Ki [1, 6] [nM] | EC50 (rat EP4 receptor [2]; [7]) [nM] | EC50 (rat EP4 receptor [3]; [8]) [nM] | EC50 (rat EP2 receptor [4]; [8]) [nM] | EC50 (rat EP4 receptor [2]; cAMP readout, EP4) [nM] | EC50 (rat EP2 receptor [5]) [nM] | EC50 (rat EP2 receptor [4]; SEAP readout, EP2) [nM] | IC50 ([1]; human EP4 receptor binding) [nM] | Ki ([1]; human EP4 receptor binding) [nM] | EC50 (rat EP4 receptor [3]; SEAP readout, EP4) [nM] | Healing of a calvarial bone defect (calvarial bone defect)
CCC#CC[C@H](C)[C@H](O)/C=C/[C@H]1CC(F)(F)C(=O)N1CCCCCCC(=O)O [Example 2C, 7-((R)-3,3-difluoro-5-((3S,4S,E)-3-hydroxy-4-methylnon-1-en-6-yn-1-yl)-2-oxopyrrolidin-1-yl)heptanoic acid] | 1.3 | 0.49 | 0.24 ± 0.08 | 0.038 ± 0.037 | > 1000 |  |  |  |  |  |  | Accelerated Healing
O=C(O)CCCCCCN1C(=O)C(F)(F)C[C@@H]1/C=C/[C@@H](O)CCCCc1ccccc1 [Example 10C, 7-((R)-3,3-difluoro-5-((S,E)-3-hydroxy-7-phenylhept-1-en-1-yl)-2-oxopyrrolidin-1-yl)heptanoic acid] | 4.9 | 1.8 | 1.1 | 0.01 |  |  |  |  |  |  |  | 
C[C@@H](CCCc1ccccc1)[C@H](O)CC[C@H]1CC(F)(F)C(=O)N1CCCc1ccc(C(=O)O)s1 [Example 28C-H2, 5-(3-((S)-3,3-difluoro-5-((3R,4S)-3-hydroxy-4-methyl-7-phenylheptyl)-2-oxopyrrolidin-1-yl)propyl)thiophene-2-carboxylic acid] |  |  |  |  |  | 0.0029 ± 0.0008 | 1310 |  |  |  |  | 
CCCCC[C@H](O)/C=C/[C@H]1CC(F)(F)C(=O)N1CCCc1ccc(C(=O)O)s1 [Example 33C, 5-(3-((R)-3,3-difluoro-5-((S,E)-3-hydroxyoct-1-en-1-yl)-2-oxopyrrolidin-1-yl)propyl)thiophene-2-carboxylic acid] |  |  |  |  |  | 0.079 |  | 326 | 0.28 | 0.1 | 0.063 | 

More lines, in order of falling IC50 [1, 6], values ahead:

IC50 [1, 6] [nM] | Ki [1, 6] [nM] | EC50 (rat EP4 receptor [2]; [7]) [nM] | EC50 (rat EP4 receptor [3]; [8]) [nM] | EC50 (rat EP2 receptor [4]; [8]) [nM] | EC50 (rat EP4 receptor [2]; cAMP readout, EP4) [nM] | EC50 (rat EP2 receptor [5]) [nM] | EC50 (rat EP2 receptor [4]; SEAP readout, EP2) [nM] | IC50 ([1]; human EP4 receptor binding) [nM] | Ki ([1]; human EP4 receptor binding) [nM] | EC50 (rat EP4 receptor [3]; SEAP readout, EP4) [nM] | Structure (SMILES) | Healing of a calvarial bone defect (calvarial bone defect)
1.2 | 0.44 | 0.15 | 0.059 |  |  |  |  |  |  |  | CC#CC[C@H](C)[C@H](O)/C=C/[C@H]1CC(F)(F)C(=O)N1CCCCCCC(=O)O [Example 1F, 7-((R)-3,3-difluoro-5-((3S,4S,E)-3-hydroxy-4-methyloct-1-en-6-yn-1-yl)-2-oxopyrrolidin-1-yl)heptanoic acid] | 
0.57 | 0.21 | 0.37 | 0.059 | 205 ± 124 |  |  |  |  |  |  | CCCCC[C@H](O)/C=C/[C@H]1CC(F)(F)C(=O)N1CCCCCCC(=O)O [Example 9C, 7-((R)-3,3-difluoro-5-((S,E)-3-hydroxyoct-1-en-1-yl)-2-oxopyrrolidin-1-yl)heptanoic acid] | 
0.32 | 0.12 | 0.047 | 0.035 | 1630 |  |  |  |  |  |  | CCC#CC[C@H](C)[C@H](O)/C=C/[C@H]1CC(F)(F)C(=O)N1CCc1ccc(C(=O)O)cc1 [Example 12D, 4-(2-((R)-3,3-difluoro-5-((3S,4S,E)-3-hydroxy-4-methylnon-1-en-6-yn-1-yl)-2-oxopyrrolidin-1-yl)ethyl)benzoic acid] | 
0.22 | 0.082 | 0.61 | 0.075 | 1960 |  |  |  |  |  |  | CCCCC[C@H](O)/C=C/[C@H]1CC(F)(F)C(=O)N1CCc1ccc(C(=O)O)cc1 [Example 21C, 4-(2-((R)-3,3-difluoro-5-((S,E)-3-hydroxyoct-1-en-1-yl)-2-oxopyrrolidin-1-yl)ethyl)benzoic acid] | 
